Experimental data taken from patent US10669242B2 (priority 2016, dated 2020).
“Also recorded” adds a separate entry of the source.

How the values were obtained:
[1] = target: T1, C. difficile full-length toxin TcdA (Clostridioides difficile, UniProt P16154); assay: cell-based
T1 construct: C. difficile full-length toxins (TcdA or TcdB); purchased Enzo Life Sciences BML-G140-0050

[2] = test system: C. difficile toxin (TcdA and TcdB, ~1:1); assay: Murine C. difficile toxin model (intrarectal toxin); format: in vivo, C57BL/6 mice; conditions: for IL-1β (% Inhibition) / MPO (% Inhibition): murine C. difficile toxin model, PO, 50 mg/kg body weight
[3] = target: T2, C. difficile full-length toxin TcdB (Clostridioides difficile, UniProt P18177); assay: cell-based
T2 construct: C. difficile full-length toxins (TcdA or TcdB); purchased EMD Millipore 616377
T2 sequence (P18177 2-2366 limits assumed): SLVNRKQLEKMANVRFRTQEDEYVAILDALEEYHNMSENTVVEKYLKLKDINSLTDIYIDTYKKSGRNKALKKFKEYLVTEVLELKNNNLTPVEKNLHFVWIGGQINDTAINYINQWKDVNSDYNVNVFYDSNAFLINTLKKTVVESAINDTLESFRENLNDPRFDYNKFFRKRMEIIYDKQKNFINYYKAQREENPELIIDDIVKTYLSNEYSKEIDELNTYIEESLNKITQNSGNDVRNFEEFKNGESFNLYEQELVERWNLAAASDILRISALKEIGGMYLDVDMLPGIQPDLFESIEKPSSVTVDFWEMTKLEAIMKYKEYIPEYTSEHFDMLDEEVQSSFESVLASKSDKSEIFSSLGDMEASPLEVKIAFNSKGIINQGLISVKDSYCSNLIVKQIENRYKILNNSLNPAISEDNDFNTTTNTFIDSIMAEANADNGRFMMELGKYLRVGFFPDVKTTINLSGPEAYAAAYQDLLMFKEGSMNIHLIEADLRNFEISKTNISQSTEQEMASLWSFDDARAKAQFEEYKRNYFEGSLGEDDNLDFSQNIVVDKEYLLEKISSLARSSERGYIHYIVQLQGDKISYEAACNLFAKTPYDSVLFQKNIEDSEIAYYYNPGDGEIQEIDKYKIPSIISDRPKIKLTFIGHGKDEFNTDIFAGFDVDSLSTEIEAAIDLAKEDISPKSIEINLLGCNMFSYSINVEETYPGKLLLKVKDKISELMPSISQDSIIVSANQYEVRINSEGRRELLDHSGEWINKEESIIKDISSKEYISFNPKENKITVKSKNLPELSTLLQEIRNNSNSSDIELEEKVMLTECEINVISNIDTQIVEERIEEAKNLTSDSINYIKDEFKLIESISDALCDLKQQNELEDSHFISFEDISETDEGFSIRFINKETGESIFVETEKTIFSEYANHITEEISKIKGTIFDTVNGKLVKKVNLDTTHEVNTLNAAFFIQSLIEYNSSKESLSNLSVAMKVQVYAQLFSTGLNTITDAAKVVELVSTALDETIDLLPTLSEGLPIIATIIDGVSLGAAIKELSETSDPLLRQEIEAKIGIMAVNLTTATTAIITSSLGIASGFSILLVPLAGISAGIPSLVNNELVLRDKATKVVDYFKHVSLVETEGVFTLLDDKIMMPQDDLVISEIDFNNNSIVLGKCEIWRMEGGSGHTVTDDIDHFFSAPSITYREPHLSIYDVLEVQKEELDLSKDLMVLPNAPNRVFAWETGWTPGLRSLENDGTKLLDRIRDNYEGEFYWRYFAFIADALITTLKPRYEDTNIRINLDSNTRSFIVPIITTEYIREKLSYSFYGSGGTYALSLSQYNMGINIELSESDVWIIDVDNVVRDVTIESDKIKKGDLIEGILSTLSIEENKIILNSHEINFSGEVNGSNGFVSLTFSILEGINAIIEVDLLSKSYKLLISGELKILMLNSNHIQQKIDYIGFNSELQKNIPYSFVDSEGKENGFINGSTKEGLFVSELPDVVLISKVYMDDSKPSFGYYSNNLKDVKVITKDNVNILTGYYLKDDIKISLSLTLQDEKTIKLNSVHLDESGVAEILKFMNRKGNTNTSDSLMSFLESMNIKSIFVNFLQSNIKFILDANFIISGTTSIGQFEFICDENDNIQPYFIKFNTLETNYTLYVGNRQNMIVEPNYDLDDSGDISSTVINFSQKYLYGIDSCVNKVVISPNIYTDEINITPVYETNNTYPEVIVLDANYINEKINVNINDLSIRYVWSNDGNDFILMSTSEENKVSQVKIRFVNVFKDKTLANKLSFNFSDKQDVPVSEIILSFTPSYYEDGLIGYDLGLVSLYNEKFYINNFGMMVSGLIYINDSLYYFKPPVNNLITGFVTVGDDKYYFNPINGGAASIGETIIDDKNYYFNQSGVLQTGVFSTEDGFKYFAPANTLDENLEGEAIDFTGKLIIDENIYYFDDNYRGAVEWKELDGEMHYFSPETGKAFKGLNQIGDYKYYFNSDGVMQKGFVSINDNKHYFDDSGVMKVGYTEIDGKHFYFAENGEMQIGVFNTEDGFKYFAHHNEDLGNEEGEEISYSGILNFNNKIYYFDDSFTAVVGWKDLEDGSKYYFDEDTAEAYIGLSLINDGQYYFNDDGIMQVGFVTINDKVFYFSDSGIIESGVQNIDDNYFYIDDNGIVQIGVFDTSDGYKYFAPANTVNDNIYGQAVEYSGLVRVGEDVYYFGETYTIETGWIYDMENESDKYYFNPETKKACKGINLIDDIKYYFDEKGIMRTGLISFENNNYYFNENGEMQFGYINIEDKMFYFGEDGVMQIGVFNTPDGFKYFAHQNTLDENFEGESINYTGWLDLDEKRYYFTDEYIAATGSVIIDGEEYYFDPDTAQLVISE

[4] = intraperitoneal (IP), 50 mg/kg, intrarectal toxin 12.5 μg
[5] = intrarectal (IR) co-administration with toxin (12.5 μg), 25 mg/kg, ~12.5 mg/kg, 4 hours
[6] = oral (PO), 50 mg/kg, intrarectal toxin 12.5 μg

T1 sequence (P16154 whole entry, looked up): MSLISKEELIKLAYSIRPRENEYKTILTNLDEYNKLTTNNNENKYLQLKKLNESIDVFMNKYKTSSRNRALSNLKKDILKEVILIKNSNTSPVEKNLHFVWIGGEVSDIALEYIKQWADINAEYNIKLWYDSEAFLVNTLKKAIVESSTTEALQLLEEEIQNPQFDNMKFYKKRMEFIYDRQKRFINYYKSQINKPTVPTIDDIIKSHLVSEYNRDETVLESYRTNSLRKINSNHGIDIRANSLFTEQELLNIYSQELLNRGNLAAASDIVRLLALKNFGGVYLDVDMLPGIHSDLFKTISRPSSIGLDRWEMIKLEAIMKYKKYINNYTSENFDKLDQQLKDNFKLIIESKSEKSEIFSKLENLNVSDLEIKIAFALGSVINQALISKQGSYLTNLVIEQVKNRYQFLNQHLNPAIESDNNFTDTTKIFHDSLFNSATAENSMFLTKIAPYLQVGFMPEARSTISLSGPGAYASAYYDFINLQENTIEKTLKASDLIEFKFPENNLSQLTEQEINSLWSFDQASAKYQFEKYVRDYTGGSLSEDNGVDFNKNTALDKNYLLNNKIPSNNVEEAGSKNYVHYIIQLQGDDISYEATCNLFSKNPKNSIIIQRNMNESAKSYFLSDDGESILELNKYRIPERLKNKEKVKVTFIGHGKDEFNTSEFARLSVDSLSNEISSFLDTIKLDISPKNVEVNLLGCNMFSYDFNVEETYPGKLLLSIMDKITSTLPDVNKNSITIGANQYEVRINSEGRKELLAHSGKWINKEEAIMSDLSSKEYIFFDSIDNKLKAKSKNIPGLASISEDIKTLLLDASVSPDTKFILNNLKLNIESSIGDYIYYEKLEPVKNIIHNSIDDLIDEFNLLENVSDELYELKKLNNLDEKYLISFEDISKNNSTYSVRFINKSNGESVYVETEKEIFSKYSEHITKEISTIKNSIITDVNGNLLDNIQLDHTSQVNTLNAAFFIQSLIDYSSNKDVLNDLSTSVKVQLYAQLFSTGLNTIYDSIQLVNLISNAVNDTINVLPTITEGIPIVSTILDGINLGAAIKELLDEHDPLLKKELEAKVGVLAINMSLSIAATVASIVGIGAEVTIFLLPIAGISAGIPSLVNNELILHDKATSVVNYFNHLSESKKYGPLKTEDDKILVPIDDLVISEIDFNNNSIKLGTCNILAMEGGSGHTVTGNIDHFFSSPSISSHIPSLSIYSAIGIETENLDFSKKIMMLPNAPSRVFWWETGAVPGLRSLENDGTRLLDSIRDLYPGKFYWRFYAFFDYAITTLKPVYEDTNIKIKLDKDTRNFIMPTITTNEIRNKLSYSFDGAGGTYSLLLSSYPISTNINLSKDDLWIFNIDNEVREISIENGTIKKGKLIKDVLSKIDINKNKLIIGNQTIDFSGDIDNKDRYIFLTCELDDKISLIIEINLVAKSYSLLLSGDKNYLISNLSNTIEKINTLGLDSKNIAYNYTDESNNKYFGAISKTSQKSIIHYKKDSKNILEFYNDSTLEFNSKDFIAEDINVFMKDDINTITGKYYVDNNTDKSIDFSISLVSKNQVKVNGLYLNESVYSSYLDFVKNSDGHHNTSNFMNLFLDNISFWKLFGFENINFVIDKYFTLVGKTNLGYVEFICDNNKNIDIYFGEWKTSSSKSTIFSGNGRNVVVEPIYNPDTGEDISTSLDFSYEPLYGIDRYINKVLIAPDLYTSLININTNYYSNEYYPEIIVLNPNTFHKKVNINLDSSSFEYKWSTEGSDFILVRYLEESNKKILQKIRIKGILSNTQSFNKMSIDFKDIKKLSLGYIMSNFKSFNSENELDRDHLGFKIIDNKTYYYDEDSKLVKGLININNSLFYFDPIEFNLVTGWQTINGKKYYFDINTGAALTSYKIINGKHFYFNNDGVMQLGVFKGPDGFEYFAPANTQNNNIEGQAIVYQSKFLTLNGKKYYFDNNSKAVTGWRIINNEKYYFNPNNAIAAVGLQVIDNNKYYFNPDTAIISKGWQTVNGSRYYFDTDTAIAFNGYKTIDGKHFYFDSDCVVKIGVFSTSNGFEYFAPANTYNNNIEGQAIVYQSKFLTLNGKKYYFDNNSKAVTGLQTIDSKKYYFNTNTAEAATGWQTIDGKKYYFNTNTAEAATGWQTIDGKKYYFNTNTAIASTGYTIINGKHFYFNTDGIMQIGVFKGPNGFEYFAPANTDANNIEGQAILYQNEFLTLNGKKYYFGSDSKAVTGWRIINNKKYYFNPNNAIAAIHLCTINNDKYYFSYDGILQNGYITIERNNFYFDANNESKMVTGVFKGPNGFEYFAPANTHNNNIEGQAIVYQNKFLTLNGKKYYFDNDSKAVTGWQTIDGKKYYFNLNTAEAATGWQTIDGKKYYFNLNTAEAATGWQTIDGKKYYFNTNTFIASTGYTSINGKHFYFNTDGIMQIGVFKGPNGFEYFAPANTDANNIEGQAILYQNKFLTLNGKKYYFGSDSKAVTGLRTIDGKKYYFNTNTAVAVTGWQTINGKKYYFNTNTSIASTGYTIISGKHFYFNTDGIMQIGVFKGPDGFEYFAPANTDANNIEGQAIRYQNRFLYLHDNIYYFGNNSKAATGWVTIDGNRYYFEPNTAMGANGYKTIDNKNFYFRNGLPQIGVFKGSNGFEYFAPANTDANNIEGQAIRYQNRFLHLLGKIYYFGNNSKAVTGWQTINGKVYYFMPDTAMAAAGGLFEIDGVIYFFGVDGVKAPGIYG

Row | Structure (SMILES) | IC50 [1] | IL-1β in colon tissue [2, 4] | MPO in colon tissue [2, 4] | toxin effect on colon length [2, 4] | toxin effect on colon length [2, 5] | toxin-induced IL-1β in colon tissue [2, 5] | toxin-induced MPO in colon tissue [2, 5] | IL-1β (% Inhibition) [2] | MPO (% Inhibition) [2] | IL-1β in colon tissue [2, 6] | MPO in colon tissue [2, 6] | toxin effect on colon length [2, 6] | colon histopathology ([2]; oral (PO), intrarectal toxin 12.5 μg) | IC50 [3]
1 | COc1ccc(NC(=O)c2ccc(CN3C(=O)c4ccc(Cl)cc4NC(=O)[C@H]3Cc3ccccn3)cc2F)nc1 [Example 6a, (R)-4-((8-Chloro-2,5-dioxo-3-(pyridin-2-ylmethyl)-2,3-dihydro-1H-benzo[e][1,4]diazepin-4(5H)-yl)methyl)-2-fluoro-N-(5-methoxypyridin-2-yl)benzamide] | 100 to 999 nM | decreased the C. difficile toxin-induced IL-1β; also recorded: reduced the concentrations of IL-1β | decreased; also recorded: reduced | reduced the C. difficile toxin-mediated effects on colon length; also recorded: effective in reducing the C. difficile toxin effects on colon length | reduced the C. difficile toxin-mediated effects on colon length | decreased the C. difficile toxin-induced IL-1β | decreased | 80% | 81% | decreased the C. difficile toxin-induced IL-1β; also recorded: reduced the levels of IL-1β; also recorded: reduced the concentrations of IL-1β | decreased; also recorded: reduced | reduced the C. difficile toxin-mediated effects on colon length; also recorded: effective in reducing the C. difficile toxin effects on colon length | prevention of tissue damage; also recorded: improved the colon histopathology | < 100 nM
2 | O=C(Nc1ccc(C(F)(F)F)cn1)c1ccc(CN2C(=O)c3ccc(Cl)cc3NC(=O)[C@H]2Cc2ccccn2)cc1Cl [Example 5ae, (R)-2-Chloro-4-((8-chloro-2,5-dioxo-3-(pyridin-2-ylmethyl)-2,3-dihydro-1H-benzo[e][1,4]diazepin-4(5H)-yl)methyl)-N-(5-(trifluoromethyl)pyridin-2-yl)benzamide] | 1000 to 10000 nM |  |  |  |  |  |  | 81% | 79% | reduced the levels of IL-1β | reduced | reduced the C. difficile toxin-mediated effects on colon length |  | 100 to 999 nM
